Measurements from ChEMBL document CHEMBL1777777, “Design, synthesis of symmetrical bivalent mimetics of annonaceous acetogenins and their cytotoxicities” (Bioorg Med Chem Lett, 2011).
Calls of active or inactive are those of the source. The calls are words filed in the database; no cut-off is given here.

How the values were obtained:
[1] = system: MCF7; test: Cytotoxicity against human MCF7 cells after 74 hrs by MTT assay; format: functional
[2] = system: SGC-7901; test: Cytotoxicity against human SGC7901 cells after 74 hrs by MTT assay; format: functional
[3] = system: HCT-116; test: Cytotoxicity against human HCT116 cells after 74 hrs by MTT assay; format: functional
[4] = system: HT-29; test: Cytotoxicity against human HT-29 cells after 74 hrs by MTT assay; format: functional
[5] = Cytotoxicity against human HLF cells after 74 hrs by MTT assay; format: cell-based; conditions: for GI50: hlf, 74 h; for GI50 at 74 h: HLF cells
[6] = Cytotoxicity against human BEAS2B cells after 74 hrs by MTT assay; format: cell-based, BEAS-2B; conditions: for GI50: beas-2b, 74 h; for GI50 at 74 h: BEAS2B cells

SMILES | GI50 [1] | GI50 [2] | GI50 [3] | GI50 [4] | GI50 [5] | GI50 [6] | GI50 ([1]; MCF7, 74 h) [nM] | GI50 ([2]; SGC-7901, 74 h) [nM] | GI50 ([3]; HCT-116, 74 h) [nM] | GI50 ([4]; HT-29, 74 h) [nM] | GI50 at 74 h [5] [nM] | GI50 at 74 h [6] [nM]
COc1c(C)c(CCCCCCCCCN2CCN(CCCCCCCCCc3c(C)c(OC)c(OC)c(OC)c3OC)CC2)c(OC)c(OC)c1OC | inactive | inactive | inactive | inactive | Not Active | Not Active | – | – | – | – | – | –
COC1=C(OC)C(=O)C(CCCCCCCCCN2CCN(CCCCCCCCCC3=C(C)C(=O)C(OC)=C(OC)C3=O)CC2)=C(C)C1=O | – | – | – | – | – | – | 400 | 490 | 500 | > 10000 | > 10000 | > 10000
CCCCCCCCCC[C@H](O)COCCOC[C@@H](O)CCCCCCCCCCCCC1=C[C@H](C)OC1=O | – | – | – | – | – | – | 260 | 60 | 110 | 350 | > 10000 | > 10000
C[C@H]1C=C(CCCCCCCC(O)CNCCCNCC(O)CCCCCCCC2=C[C@H](C)OC2=O)C(=O)O1 (mixture of isomers) | inactive | inactive | inactive | inactive | Not Active | Not Active | – | – | – | – | – | –
C[C@H]1C=C(CCCCCCCC(O)CN(C)CCN(C)CC(O)CCCCCCCC2=C[C@H](C)OC2=O)C(=O)O1 (mixture of isomers) | – | – | inactive | inactive | – | – | 3160 | 6220 | – | – | > 10000 | > 10000
C[C@H]1C=C(CCCCCCCC(O)CN(C)CCCN(C)CC(O)CCCCCCCC2=C[C@H](C)OC2=O)C(=O)O1 (mixture of isomers) | – | – | – | – | – | – | 2380 | 4120 | > 10000 | 1500 | 4420 | 10600
C[C@H]1C=C(CCCCCCCC(O)CNc2ccc(NCC(O)CCCCCCCC3=C[C@H](C)OC3=O)cc2)C(=O)O1 (mixture of isomers) | – | – | – | – | Not Active | Not Active | 7370 | 4400 | 2490 | 870 | – | –
C[C@H]1C=C(CCCCCCCC(O)CN2CCN(CC(O)CCCCCCCC3=C[C@H](C)OC3=O)CC2)C(=O)O1 (mixture of isomers) | – | – | – | – | – | Not Active | 2190 | 1670 | 3720 | > 10000 | > 10000 | –
